Consider 20 molecules from patent US20230183219A1, “CONDENSED SUBSTITUTED HYDROPYRROLES AS ANTAGONISTS OF THE MUSCARINIC ACETYLCHOLINE RECEPTOR M4” (Vanderbilt University, priority 2020, published 2023).

Each structure is given as a SMILES string.

The target in the assay is T1, Human M4 (Homo sapiens, UniProt P08173).
T1 construct: Human or rat M4 cDNA, along with the chimeric G protein Gqi5, were transfected into Chinese hamster ovary (CHO-K1) cells; expressed in transfected cells; host or cells: CHO-K1 (Chinese hamster ovary, ATCC), stably co-expressing Gqi5
T1 sequence (P08173 1-479): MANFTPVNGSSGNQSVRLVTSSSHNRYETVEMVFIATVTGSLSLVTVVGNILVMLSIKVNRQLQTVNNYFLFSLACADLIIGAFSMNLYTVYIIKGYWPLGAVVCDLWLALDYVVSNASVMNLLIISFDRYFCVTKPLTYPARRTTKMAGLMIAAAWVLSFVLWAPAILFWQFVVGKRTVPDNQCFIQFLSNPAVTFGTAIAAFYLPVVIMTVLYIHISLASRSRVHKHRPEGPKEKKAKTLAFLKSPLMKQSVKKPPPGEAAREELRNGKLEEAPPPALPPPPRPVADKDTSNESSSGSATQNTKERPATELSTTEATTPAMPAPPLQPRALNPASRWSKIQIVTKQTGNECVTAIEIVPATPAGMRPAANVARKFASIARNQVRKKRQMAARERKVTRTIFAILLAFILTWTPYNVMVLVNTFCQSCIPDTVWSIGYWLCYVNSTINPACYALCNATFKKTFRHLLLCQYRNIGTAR
Nature of the assay: mAChR M4 cell-based functional assay (calcium flux, decrease of EC80 acetylcholine response). The settings on record: for remaining activity at 30 µM: % ACh maximum at 30 μM, read-out: Human M4 Emin; for IC50: M4/Gqi5/CHO-K1 cells, decrease of response to EC80 acetylcholine. The procedure, abridged: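 IC50 reflects inhibition of an EC80 acetylcholine calcium response, fitted by four-parameter logistic equation. Fluo-4-loaded M4/Gqi5 CHO-K1 cells received compound (10-point, 1:3 series) 2 s into the FDSS read, then EC20 acetylcholine at 143 s and EC80 at 268 s.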

Turning to `CCOc1ccc(-c2cc(C(F)(F)F)c(N[C@H]3C[C@@H]4CN(CC5CCOCC5)C[C@@H]4C3)nn2)c(C)c1` [Example 84, (3aR,5s,6aS)-N-(6-(4-ethoxy-2-methylphenyl)-4-(trifluoromethyl)pyridazin-3-yl)-2-((tetrahydro-2H-pyran-4-yl)methyl)octahydro-cyclopenta[c]pyrrol-5-amine], the remaining activity at 30 µM turned out to be 3% and the IC50 turned out to be 73.7 nM.
Regarding `CCc1ccccc1-c1cc(C(F)(F)F)c(N[C@H]2C[C@@H]3CN(CC4CCOCC4)C[C@@H]3C2)nn1` [Example 85, (3aR,5s,6aS)-N-(6-(2-ethylphenyl)-4-(trifluoro-methyl)pyridazin-3-yl)-2-((tetrahydro-2H-pyran-4-yl)methyl)octahydro-cyclopenta[c]pyrrol-5-amine], the remaining activity at 30 µM is 3% and the IC50 came out at 42.8 nM.
As to `CN1Cc2cc(-c3cc(C(F)(F)F)c(N[C@H]4C[C@@H]5CN(CC6CCOCC6)C[C@@H]5C4)nn3)ccc2C1=O` [Example 86, 2-methyl-5-(6-(((3aR,5s,6aS)-2-((tetrahydro-2H-pyran-4-yl)methyl)octahydro-cyclopenta[c]pyrrol-5-yl)amino)-5-(trifluoro-methyl)pyridazin-3-yl)isoindolin-1-one], the remaining activity at 30 µM came out at 4% and the IC50 is 200 nM.
For `Cn1ccc2cc(-c3cc(C(F)(F)F)c(N[C@H]4C[C@@H]5CN(CC6CCOCC6)C[C@@H]5C4)nn3)ccc21` [Example 87, (3aR,5s,6aS)-N-(6-(1-methyl-1H-indol-5-yl)-4-(trifluoromethyl)pyridazin-3-yl)-2-((tetrahydro-2H-pyran-4-yl)methyl)octahydro-cyclopenta[c]pyrrol-5-amine] the same measures were 4% and 89.6 nM.
For `FC(F)(F)c1cc(-c2ccc3c(c2)CCO3)nnc1N[C@H]1C[C@@H]2CN(CC3CCOCC3)C[C@@H]2C1` [Example 88, (3aR,5s,6aS)-N-(6-(2,3-dihydrobenzofuran-5-yl)-4-(trifluoromethyl)pyridazin-3-yl)-2-((tetrahydro-2H-pyran-4-yl)methyl)octahydro-cyclopenta[c]pyrrol-5-amine] the same measures were 3% and 47.6 nM.
The like results for `Fc1ccc(C(F)(F)F)cc1-c1cc(C(F)(F)F)c(N[C@H]2C[C@@H]3CN(CC4CCOCC4)C[C@@H]3C2)nn1` [Example 89, (3aR,5s,6aS)-N-(6-(2-fluoro-5-(trifluoromethyl)phenyl)-4-(trifluoromethyl)pyridazin-3-yl)-2-((tetrahydro-2H-pyran-4-yl)methyl)octahydro-cyclopenta[c]pyrrol-5-amine] were, in that order, 4% and 634 nM.
Turning to `Cn1ccc2ccc(-c3cc(C(F)(F)F)c(N[C@H]4C[C@@H]5CN(CC6CCOCC6)C[C@@H]5C4)nn3)cc21` [Example 90, (3aR,5s,6aS)-N-(6-(1-methyl-1H-indol-6-yl)-4-(trifluoromethyl)pyridazin-3-yl)-2-((tetrahydro-2H-pyran-4-yl)methyl)octahydro-cyclopenta[c]pyrrol-5-amine], the remaining activity at 30 µM was determined as 4% and the IC50 came out at 637 nM.
The like results for `CCOc1cc(F)c(-c2cc(C(F)(F)F)c(N[C@H]3C[C@@H]4CN(CC5CCOCC5)C[C@@H]4C3)nn2)cc1F` [Example 91, (3aR,5s,6aS)-N-(6-(4-ethoxy-2,5-difluorophenyl)-4-(trifluoromethyl)pyridazin-3-yl)-2-((tetrahydro-2H-pyran-4-yl)methyl)octahydro-cyclopenta[c]pyrrol-5-amine] were, in that order, 3% and 280 nM.
The like results for `Cc1cc(-c2cc(C(F)(F)F)c(N[C@H]3C[C@@H]4CN(CC5CCOCC5)C[C@@H]4C3)nn2)c(F)cc1F` [Example 92, (3aR,5s,6aS)-N-(6-(2,4-difluoro-5-methylphenyl)-4-(trifluoromethyl)pyridazin-3-yl)-2-((tetrahydro-2H-pyran-4-yl)methyl)octahydro-cyclopenta[c]pyrrol-5-amine] were, in that order, 2% and 338 nM.
For `Cc1cc(F)c(F)c(-c2cc(C(F)(F)F)c(N[C@H]3C[C@@H]4CN(CC5CCOCC5)C[C@@H]4C3)nn2)c1` [Example 93, (3aR,5s,6aS)-N-(6-(2,3-difluoro-5-methylphenyl)-4-(trifluoromethyl)pyridazin-3-yl)-2-((tetrahydro-2H-pyran-4-yl)methyl)octahydro-cyclopenta[c]pyrrol-5-amine] the same measures were 3% and 172 nM.
On to `Fc1ccc(C2CC2)cc1-c1cc(C(F)(F)F)c(N[C@H]2C[C@@H]3CN(CC4CCOCC4)C[C@@H]3C2)nn1` [Example 94, (3aR,5s,6aS)-N-(6-(5-cyclopropyl-2-fluorophenyl)-4-(trifluoromethyl)pyridazin-3-yl)-2-((tetrahydro-2H-pyran-4-yl)methyl)octahydro-cyclopenta[c]pyrrol-5-amine], for which the remaining activity at 30 µM turned out to be 3% and the 50% inhibitory concentration (IC50) was found to be 1330 nM.
For `CCc1ccc(F)c(-c2cc(C(F)(F)F)c(N[C@H]3C[C@@H]4CN(CC5CCOCC5)C[C@@H]4C3)nn2)c1` [Example 95, (3aR,5s,6aS)-N-(6-(5-ethyl-2-fluorophenyl)-4-(trifluoromethyl)pyridazin-3-yl)-2-((tetrahydro-2H-pyran-4-yl)methyl)octahydro-cyclopenta[c]pyrrol-5-amine] the same measures were 3% and 931 nM.
The like results for `CC(C)c1ccc(F)c(-c2cc(C(F)(F)F)c(N[C@H]3C[C@@H]4CN(CC5CCOCC5)C[C@@H]4C3)nn2)c1` [Example 96, (3aR,5s,6aS)-N-(6-(2-fluoro-5-isopropylphenyl)-4-(trifluoromethyl)pyridazin-3-yl)-2-((tetrahydro-2H-pyran-4-yl)methyl)octahydro-cyclopenta[c]pyrrol-5-amine] were, in that order, 3% and 2040 nM.
For `CC(C)Oc1cc(F)c(-c2cc(C(F)(F)F)c(N[C@H]3C[C@@H]4CN(CC5CCOCC5)C[C@@H]4C3)nn2)cc1F` [Example 97, (3aR,5s,6aS)-N-(6-(2,5-difluoro-4-isopropoxyphenyl)-4-(trifluoromethyl)pyridazin-3-yl)-2-((tetrahydro-2H-pyran-4-yl)methyl)octahydro-cyclopenta[c]pyrrol-5-amine] the same measures were 3% and 757 nM.
As to `[2H]C([2H])(C1CCOCC1)N1C[C@H]2C[C@H](Nc3nnc(-c4cc(C)ccc4C)cc3C(F)(F)F)C[C@H]2C1` [Example 98, (3aR,5s,6aS)-N-(6-(2,5-dimethylphenyl)-4-(trifluoromethyl)pyridazin-3-yl)-2-((tetrahydro-2H-pyran-4-yl)methyl-d2)octahydro-cyclopenta[c]pyrrol-5-amine], the remaining activity at 30 µM came out at 3% and the IC50 worked out at 72.7 nM.
The like results for `[2H]C([2H])(C1CCOCC1)N1C[C@H]2C[C@H](Nc3nnc(-c4cc(F)ccc4C(F)(F)F)cc3C(F)(F)F)C[C@H]2C1` [Example 99, (3aR,5s,6aS)-N-(6-(5-fluoro-2-(trifluoromethyl)phenyl)-4-(trifluoromethyl)pyridazin-3-yl)-2-((tetrahydro-2H-pyran-4-yl)methyl-d2)octahydro-cyclopenta[c]pyrrol-5-amine] were, in that order, 2% and 54.7 nM.
The like results for `Fc1ccc(Cl)c(-c2cc(C(F)(F)F)c(N[C@H]3C[C@@H]4CN(Cc5ccccn5)C[C@@H]4C3)nn2)c1` [Example 100, (3aR,5s,6aS)-N-(6-(2-chloro-5-fluorophenyl)-4-(trifluoromethyl)pyridazin-3-yl)-2-(pyridin-2-ylmethyl)octahydro-cyclopenta[c]pyrrol-5-amine] were, in that order, 4% and 269 nM.
The like results for `Fc1ccccc1-c1cc(C(F)(F)F)c(N[C@H]2C[C@@H]3CN(Cc4ccccn4)C[C@@H]3C2)nn1` [Example 101, (3aR,5s,6aS)-N-(6-(2-fluorophenyl)-4-(trifluoro-methyl)pyridazin-3-yl)-2-(pyridin-2-ylmethyl)octahydro-cyclopenta[c]pyrrol-5-amine] were, in that order, 3% and 674 nM.
Turning to `FC(F)(F)c1cc(-c2ccccc2)nnc1N[C@H]1C[C@@H]2CN(Cc3ccccn3)C[C@@H]2C1` [Example 102, (3aR,5s,6aS)-N-(6-phenyl-4-(trifluoro-methyl)pyridazin-3-yl)-2-(pyridin-2-ylmethyl)octahydro-cyclopenta[c]pyrrol-5-amine], the remaining activity at 30 µM amounted to 4% and the IC50 was 350 nM.
As to `Cc1ccc(F)cc1-c1cc(C(F)(F)F)c(N[C@H]2C[C@@H]3CN(Cc4ccccn4)C[C@@H]3C2)nn1` [Example 103, (3aR,5s,6aS)-N-(6-(5-fluoro-2-methylphenyl)-4-(trifluoromethyl)pyridazin-3-yl)-2-(pyridin-2-ylmethyl)octahydro-cyclopenta[c]pyrrol-5-amine], the remaining activity at 30 µM was 3% and the IC50 is 95.7 nM.
